Laboratory results from patent publication US12383158B2, “Detection of high-risk unstable atherosclerotic plaque” (The Heart Research Institute Ltd, priority 2018, dated 2025).

Experiments:
[1] = target: T1, MPO activity in atherosclerotic plaque (Mus musculus, UniProt P11247); details: for CNR of unstable plaque in the right carotid artery, 30 min after contrast injection / CNR of unstable plaque in the right carotid artery, 60 min after contrast injection: mean±SD
T1 sequence (P11247 139-718): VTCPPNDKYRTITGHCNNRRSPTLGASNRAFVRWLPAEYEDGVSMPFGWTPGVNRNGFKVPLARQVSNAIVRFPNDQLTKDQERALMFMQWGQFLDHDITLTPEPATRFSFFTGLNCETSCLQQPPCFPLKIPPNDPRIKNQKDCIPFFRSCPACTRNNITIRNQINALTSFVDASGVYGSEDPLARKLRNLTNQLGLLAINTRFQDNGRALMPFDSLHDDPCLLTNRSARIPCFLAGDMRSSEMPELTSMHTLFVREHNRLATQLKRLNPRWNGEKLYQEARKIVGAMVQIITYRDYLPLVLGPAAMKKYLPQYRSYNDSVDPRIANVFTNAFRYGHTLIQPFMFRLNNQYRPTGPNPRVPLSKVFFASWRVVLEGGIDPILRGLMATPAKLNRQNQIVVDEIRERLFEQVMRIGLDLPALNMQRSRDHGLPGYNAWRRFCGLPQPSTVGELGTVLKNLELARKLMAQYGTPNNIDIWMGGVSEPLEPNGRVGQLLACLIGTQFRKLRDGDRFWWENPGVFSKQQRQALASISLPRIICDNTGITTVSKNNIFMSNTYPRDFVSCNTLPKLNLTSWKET
Excerpt: Scheme of action of bis-5HT-DTPA-Gd (MPO-Gd) and magnetic resonance imaging protocol. A, In the presence of H2O2, MPO oxidises the 5-hydroxytryptamine moiety of MPO-Gd to a phenoxyl radical, which then can give rise to either an MPO-Gd dimer or multimer (not shown) to amplify the signal. The phenoxyl radical-containing MPO-Gd may also covalently bind to proteins. […] B, Mice were imaged under isoflurane anaesthesia. Initial acquisition involved a localiser, time-of-flight and T1-weighted turbo spin echo (T1-TSE) imaging. Approximately 30 μmin after acquisition of baseline images, MPO-Gd (0.3 mmol/kg) was injected intravenously via the tail vein. Consecutive T1-TSE images were then acquired for 60 μmin following contrast injection. Segmental analysis of MPO activity was assessed by calculating the ΔCNR (CNRpost-contrast−CNRpre-contrast) for unstable and stable plaque, and non-diseased arterial segments.
At 7 weeks following TS surgery, isoflurane-anaesthetised mice were imaged in the prone position using a 9.4T Bruker Biospec 94/20 Avance III system (Bruker, Ettlingen, Germany) with a 50-mm quadrature radiofrequency coil and respiratory-gated image acquisition. Mice were imaged before and after intravenous administration of 0.3 μmmol/kg of the MPO sensor bis-5-hydroxytryptamide-DTPA Gd (MPO-Gd) or DTPA-Gd (Magnevist, Bayer, Leverkusen, Germany) via a tail vein catheter. Prior to contrast injection, a flow-compensated 2D-FLASH time-of-flight (TOF) angiography in a coronal slice orientation was performed to assess intra-vessel (luminal) volume and geometry using a flow compensated 2D-GRE sequence (FLASH) for time-of-flight (TOF) angiography in an axial slice orientation with the following major parameters: TR 34 μms, TE 3 μms, slice thickness 0.5 μmm, interslice distance 0.35 μmm, 40 slices, matrix size 128×128, FOV 20×20 μmm, in-plane resolution 156×156 μm. This was followed by a T1-weighted fast spin echo (TurboRARE, T1-TSE) acquired in the same orientation with the following parameters: TR 1500 μms, TE 8.5 μms, ETL 8, slice thickness 1 μmm, FOV 20×20 μmm, matrix size 192×192, in-plane resolution 104×104 μm. This T1-TSE protocol was then repeated in a scan series covering a period of one hour following contrast injection to assess contrast agent inflow and retention. OsiriX (Version 7.0, Pixmeo, Switzerland) was used for image analysis. In T1-TSE images, separate regions of interest were assigned to the vessel wall, skeletal muscle (reference) and background (air). The contrast-to-noise ratio (CNR) was calculated as follows: CNR=(SIvessel wall−SIskeletal muscle)/SDbackground The mean CNRs of three consecutive slices in plaque with unstable phenotype and corresponding segments of the left carotid artery (plaque-free), in addition to 1-2 consecutive slices in the brachiocephalic trunk (stable plaque, SP), were calculated. Segmental enhancement attributable to MPO was assessed by calculating the ΔCNR=CNRpost-contrast−CNRpre-contrast.

[2] = mouse, in vivo
Description: Nuclear microscopy experiments were performed at the Centre for Ion Beam Applications at the National University of Singapore, as described previously.6 Briefly, the samples were mounted onto a 3-axis stage within a scattering chamber maintained at <5×10−6 μmbar. A collimated proton beam (H+) at 2.1 MeV was generated using a 3.5 MV Singletron accelerator and kept incident onto the samples inclined at 45 degrees to the incident beam. The broad incident ion beam was focused down to a spot size of 1 μm and scanned across the region of interest. […]
PIXE data was collected using a Si(Li) detector placed at 20 μmm from the samples to the Si(Li) crystal face. RBS and STIM data were measured by a passivated implanted planar silicon (PIPS) detector. […]
Scanning transmission ion microscopy provides structural maps based on the energy lost by the protons as they pass through the relatively thin organic samples with thicknesses of 30 μm or less, enabling structural identification without fixing or staining. Trace elemental mapping was performed using particle-induced X-ray emission, which simultaneously provides multiple elements with high quantitative accuracy and sensitivity to a few parts per million in biological materials. […]

[3] = TS Apoe−/− mice, 0.3 mmol/kg i.v.

| enhancement of the right carotid artery in TS Mpo−/−Apoe−/− mice ([1]; 60 min, compared with Apoe−/− mice) | enhancement of the non-diseased vessel wall of the left carotid artery [1, 3] | CNR of unstable plaque in the right carotid artery, 30 min after contrast injection [1, 3] | CNR of unstable plaque in the right carotid artery, 60 min after contrast injection [1, 3] | period within which the enhancing material is washed out/eliminated from Segment I ([1]; mouse, in vivo) [weeks] | plaque specificity of enhancement 1 week after TS surgery ([1]; unstable plaque (Segment I) vs stable plaque (brachiocephalic artery)) | Gd content of unstable plaque [2] | SMILES | enhancement of the brachiocephalic artery (stable plaque) [1, 3] |
| --- | --- | --- | --- | --- | --- | --- | --- | --- |
| attenuated enhancement | no significant enhancement | 23.7±6.8 | 25±6.4 | < 2 | seen only in unstable plaque | significant accumulation of Gd | O=C([O-])CN(CCN(CC(=O)[O-])CC(=O)NCCc1c[nH]c2ccc(O)cc12)CCN(CC(=O)[O-])CC(=O)NCCc1c[nH]c2ccc(O)cc12.[Gd+3] [MPO-Gd, bis-5-hydroxytryptamide-DTPA Gd] | did not result in significant sustained enhancement |
| – | – | 19.2±7.2 | 13.4±3.6 | – | – | – | CNC[C@H](O)[C@@H](O)[C@H](O)[C@H](O)CO.CNC[C@H](O)[C@@H](O)[C@H](O)[C@H](O)CO.O=C([O-])CN(CCN(CC(=O)[O-])CC(=O)O)CCN(CC(=O)[O-])CC(=O)O.[Gd+3] [DTPA-Gd] | – |
